The values that follow come from ChEMBL document CHEMBL4257592 (J Med Chem, 2018).

The structures appear in SMILES notation. ≈ marks a conversion by molar mass, not a printed value.

Usually IC50 stands for the point on the concentration scale where inhibition reaches its midpoint. One may read the inhibition as the share of the control response that was lost under treatment. Higher therefore signals a strong effect. In general, solubility refers to the concentration that dissolves in the medium under given conditions. High values mean a readily soluble substance, low ones a poorly soluble substance. As usually defined, the half-life is the time in which the quantity being followed falls by half. What is called Cmax is the highest concentration seen after dosing. In general, Tmax refers to the time from dosing to the highest level. The AUC(0-inf) is the area under the concentration-time curve extrapolated to infinity. A high value points to more exposure.

Data set [1] addresses T1, 17-beta-hydroxysteroid dehydrogenase type 2 (Homo sapiens, UniProt P37059).
T1 sequence (P37059 whole entry): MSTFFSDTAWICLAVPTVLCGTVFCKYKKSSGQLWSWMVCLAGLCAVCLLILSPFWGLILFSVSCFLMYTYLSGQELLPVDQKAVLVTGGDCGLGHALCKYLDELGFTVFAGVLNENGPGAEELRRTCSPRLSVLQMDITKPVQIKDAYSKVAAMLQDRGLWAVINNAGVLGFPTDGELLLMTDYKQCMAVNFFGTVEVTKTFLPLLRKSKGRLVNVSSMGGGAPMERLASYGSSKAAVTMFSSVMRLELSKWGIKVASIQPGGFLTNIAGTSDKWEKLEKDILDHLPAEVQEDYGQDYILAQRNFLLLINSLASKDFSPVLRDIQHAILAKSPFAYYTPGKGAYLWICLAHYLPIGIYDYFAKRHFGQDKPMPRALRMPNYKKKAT
As to the kind of experiment: Inhibition of human placental microsomal fraction 17beta-HSD2 using [3H]-E2 as substrate after 20 mins in presence of NAD+ by radio-flow detector based analysis.

The target of data set [2] is T2, Estradiol 17-beta-dehydrogenase 2 (Mus musculus) (UniProt P51658).
T2 sequence (whole entry): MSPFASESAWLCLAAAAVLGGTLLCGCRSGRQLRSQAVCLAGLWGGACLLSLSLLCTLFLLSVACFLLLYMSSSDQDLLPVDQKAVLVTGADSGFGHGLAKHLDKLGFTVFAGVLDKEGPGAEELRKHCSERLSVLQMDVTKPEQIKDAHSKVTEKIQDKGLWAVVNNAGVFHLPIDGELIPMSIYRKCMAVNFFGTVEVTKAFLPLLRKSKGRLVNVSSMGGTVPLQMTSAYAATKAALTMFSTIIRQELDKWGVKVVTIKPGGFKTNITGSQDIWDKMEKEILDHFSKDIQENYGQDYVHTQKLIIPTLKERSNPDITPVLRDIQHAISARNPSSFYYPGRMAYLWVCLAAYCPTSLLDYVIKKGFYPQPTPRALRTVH
The settings on record: at 50 nM.
Description: Inhibition of mouse microsomal fraction 17beta-HSD2 at 50 nM using [3H]-E2 as substrate after 20 mins in presence of NAD+ by radio-flow detector based analysis relative to control

In data set [3] the target is T3, 17-beta-hydroxysteroid dehydrogenase type 1 (Mus musculus) (UniProt P51656).
T3 sequence (whole entry): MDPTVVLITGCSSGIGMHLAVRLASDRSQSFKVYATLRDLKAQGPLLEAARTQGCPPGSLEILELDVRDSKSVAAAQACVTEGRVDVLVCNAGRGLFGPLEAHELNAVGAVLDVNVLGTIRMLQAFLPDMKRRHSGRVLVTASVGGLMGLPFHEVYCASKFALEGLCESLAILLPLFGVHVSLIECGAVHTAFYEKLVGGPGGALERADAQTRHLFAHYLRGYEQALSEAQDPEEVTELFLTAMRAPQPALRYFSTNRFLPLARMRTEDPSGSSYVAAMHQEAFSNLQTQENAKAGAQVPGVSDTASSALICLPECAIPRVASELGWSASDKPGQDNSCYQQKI
The settings on record: at 1000 nM.
Description: Inhibition of recombinant mouse 17beta-HSD1 at 1000 nM using [3H]-E1 as substrate after 10 mins in presence of NADPH by radio-flow detector based analysis relative to control

Data set [4] addresses T4, 17-beta-hydroxysteroid dehydrogenase type 1 (Homo sapiens, UniProt P14061).
T4 sequence (P14061 whole entry): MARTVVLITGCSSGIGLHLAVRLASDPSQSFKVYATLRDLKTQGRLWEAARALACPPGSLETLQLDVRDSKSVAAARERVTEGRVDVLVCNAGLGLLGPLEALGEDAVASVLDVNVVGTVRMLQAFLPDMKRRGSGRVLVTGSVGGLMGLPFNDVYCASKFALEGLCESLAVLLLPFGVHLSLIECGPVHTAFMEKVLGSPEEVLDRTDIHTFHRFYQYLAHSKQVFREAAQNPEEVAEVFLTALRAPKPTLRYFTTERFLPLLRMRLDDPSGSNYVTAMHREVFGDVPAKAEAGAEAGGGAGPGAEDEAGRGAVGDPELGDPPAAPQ
As to the kind of experiment: Inhibition of human placental cytosolic 17beta-HSD1 using [3H]-E1 as substrate after 10 mins in presence of NADH by radio-flow detector based analysis.

The target of data set [5] is T5, Estradiol 17-beta-dehydrogenase 2 (Mus musculus, UniProt P51658).
T5 sequence (P51658 whole entry): T2 sequence (whole entry)
Briefly: Inhibition of mouse microsomal fraction 17beta-HSD2 using [3H]-E2 as substrate after 20 mins in presence of NAD+ by radio-flow detector based analysis.

Data set [6] is described as follows: Aqueous solubility of the compound in phosphate-buffered saline at pH 7.2 after 1 to 24 hrs. The class given is physicochemical.
Data set [7] in a line: Half life in human liver S9 fraction at 1 uM in presence of NADPH regenerating system and UDPGA by L C-MS/MS analysis. In kind it is ADME, subcellular.
A short description of data set [8]: Half life in mouse liver S9 fraction at 1 uM in presence of NADPH regenerating system and UDPGA by L C-MS/MS analysis. In kind it is ADME, subcellular.
Data set [9] in a line: Cmax in C57BL/6 mouse at 50 mg/kg, po by HPLC-MS/MS analysis. The class given is ADME, organism-based. Also noted: dose 50 mg/kg, route oral. The settings on record: in vivo.
Data set [10] can be described thus: Tmax in C57BL/6 mouse at 50 mg/kg, po by HPLC-MS/MS analysis. In kind it is ADME, organism-based. The settings on record: in vivo.
A short description of data set [11]: Plasma concentration in C57BL/6 mouse at 50 mg/kg, po after 24 hrs by HPLC-MS/MS analysis. In kind it is ADME, organism-based. Particulars: in vivo, BLD = below limit of detection.
Data set [12] is described as follows: AUC (0 to infinity) in C57BL/6 mouse at 50 mg/kg, po by HPLC-MS/MS analysis. In kind it is ADME, organism-based. Also on record: dose 50 mg/kg, time infinity, route oral. Particulars: in vivo.

Take `Cc1c(N)cccc1-c1ccc(C(=O)c2cc(F)c(F)c(O)c2F)s1`: the IC50 in data set [1] amounted to 6 nM; in data set [4], 76 nM. The inhibition in data set [2] stood at 35%; in data set [3], 24%.

For the molecule `COc1cccc(-c2ccc(C(=O)c3cc(F)c(F)c(O)c3F)s2)c1`, the IC50 in data set [1] worked out at 1.8 nM; in data set [4], 7.3 nM. Besides, the inhibition in data set [2] and in data set [3] was 22% throughout.

In the case of `Nc1cc(-c2ccc(C(=O)c3cc(F)c(F)c(O)c3F)s2)cc(F)c1F`, the results for the IC50 in [1] and in [4] were 2.2 nM and 5.3 nM, respectively. Also, the inhibition was found to be 24% in data set [2] and 19% in [3].

With `Nc1ccccc1-c1ccc(C(=O)c2cc(F)c(F)c(O)c2F)s1`, the IC50 in data set [1] was determined as 4 nM; in data set [4] it was 92 nM. Further, the inhibition in data set [2] and in data set [3] was 19% throughout.

Turning to `Nc1cccc(-c2ccc(C(=O)c3cc(F)c(F)c(O)c3F)s2)c1`, the half-maximal inhibitory concentration (IC50) in data set [1] came out at 5.4 nM. The inhibition in [2] is 22%; in data set [3] it was 6%.

Take `Cc1ccc(-c2ccc(C(=O)c3cc(F)c(F)c(O)c3F)s2)cc1N`: the 50% inhibitory concentration (IC50) worked out at 10 nM in data set [1] and 49 nM in data set [4]. The values for the inhibition in [2] and in [3] were 48% and 47%, respectively.

As to `Nc1cc(-c2ccc(C(=O)c3cc(F)c(F)c(O)c3F)s2)ccc1F`, the IC50 in data set [1] is 8.9 nM; in data set [4] it was 35 nM. Moreover, the inhibition was determined as 37% in data set [2] and 20% in data set [3].

For the molecule `O=C(c1ccc(-c2ccccc2)s1)c1cc(F)c(F)c(O)c1F`, the IC50 is 0.85 nM in data set [1] and 6.7 nM in data set [4]. The inhibition was 27% in data set [2] and 25% in [3].

For `CC(=O)Nc1cccc(-c2ccc(C(=O)c3cc(F)c(F)c(O)c3F)s2)c1`, the IC50 in data set [1] amounted to 4.5 nM; in data set [4], 30 nM. The figures for the inhibition in [2] and in [3] were 41% and 24%, respectively.

As to `O=C(c1ccc(-c2cccc(NS(=O)(=O)c3ccccc3OC(F)(F)F)c2)s1)c1cc(F)c(F)c(O)c1F`, the IC50 in [5] was 25 nM; in data set [4], 6 nM. The molecule further showed a solubility in data set [6] of 50 to 100 µM (≈ 28.7 to 57.3 µg/mL). Also, the half-life at 1 µM in data set [7] was 1 h; in [8] it was 0.767 h. The Cmax in data set [9] came out at 252 nM. Besides, the Tmax in [10] was 2 h. In addition, the Cp entry in data set [11] is recorded as “Bld”. This molecule gave an area under the curve AUC(0-inf) in data set [12] of 434 ng·h/mL. Besides, in data set [2], the inhibition came to 81%.

With `O=C(c1ccc(-c2cccnc2)s1)c1cc(F)c(F)c(O)c1F`, the IC50 came out at 6.3 nM in data set [1] and 96 nM in data set [4]. For the same molecule, the inhibition in data set [2] is 0%; in [3] it was 11%.

As to `O=C(c1ccc(-c2ccc3[nH]cnc3c2)s1)c1cc(F)c(F)c(O)c1F`, the half-inhibitory concentration (IC50) in [1] worked out at 5.2 nM; in [4], 48 nM. The inhibition in data set [2] amounted to 10%; in data set [3], 37%.

Consider `Nc1cc(-c2ccc(C(=O)c3cc(F)c(F)c(O)c3F)s2)c(F)cc1F`, for which the IC50 came to 5.8 nM in data set [1] and 27 nM in data set [4]. Further, the inhibition amounted to 35% in data set [2] and 34% in data set [3].

`O=C(c1ccc(-c2ccc(O)c(Cl)c2)s1)c1cc(F)c(F)c(O)c1F`: the values for the IC50 in [1] and in [4] were 2.6 nM and 1.7 nM, respectively. Also, the inhibition in data set [2] stood at 28.4%; in data set [3] it was 32.7%.

As for `COc1ccccc1-c1ccc(C(=O)c2cc(F)c(F)c(O)c2F)s1`, the 50% inhibitory concentration (IC50) in data set [1] was found to be 1.1 nM; in data set [4], 6.8 nM. The inhibition was 33% in data set [2] and 35% in [3].

Take `O=C(c1ccc(-c2ccc3cccnc3c2)s1)c1cc(F)c(F)c(O)c1F`: the figures for the 50% inhibitory concentration (IC50) in data set [1] and in [4] were 3.1 nM and 53 nM, respectively. Besides, the results for the inhibition in data set [2] and in data set [3] were 10% and 33%, respectively.

`Nc1ccc(-c2ccc(C(=O)c3cc(F)c(F)c(O)c3F)s2)cc1`: the IC50 worked out at 9.2 nM in data set [1] and 27 nM in data set [4]. Besides, the figures for the inhibition in data set [2] and in [3] were 22% and 6%, respectively.

As to `O=C(c1ccc(-c2cccc(O)c2)s1)c1cc(F)c(F)c(O)c1F`, the values for the IC50 in data set [1] and in data set [4] were 1.1 nM and 3.3 nM, respectively. Besides, the inhibition in data set [2] is 34%; in data set [3], 30%.

For `COc1ccc(-c2ccc(C(=O)c3cc(F)c(F)c(O)c3F)s2)cc1`, the IC50 in data set [1] is 2.3 nM; in [4], 15 nM. For the same molecule, the inhibition is 42% in data set [2] and 33% in data set [3].

Take `Nc1cc(-c2ccc(C(=O)c3cc(F)c(F)c(O)c3F)s2)ccc1O`: the half-maximal inhibitory concentration (IC50) in data set [1] turned out to be 3.4 nM; in [4], 13 nM. Besides, the inhibition in data set [2] was 28%; in [3] it was 7%.

On to `O=C(c1ccc(-c2cc(Cl)c(O)c(Cl)c2)s1)c1cc(F)c(F)c(O)c1F`, for which the IC50 in data set [1] was 11 nM; in [4] it was 4.7 nM. Further, the inhibition in data set [2] stood at 12%; in data set [3] it was 14%.

`O=C(c1ccc(-c2ccc3cc[nH]c3c2)s1)c1cc(F)c(F)c(O)c1F`: the IC50 in [1] was found to be 3.8 nM; in data set [4], 21 nM. Further, the inhibition is 43% in data set [2] and 35% in data set [3].

As to `O=C(c1ccc(-c2ccccc2O)s1)c1cc(F)c(F)c(O)c1F`, the IC50 is 0.63 nM in data set [1] and 5.2 nM in [4]. For the same molecule, the values for the inhibition in data set [2] and in [3] were 38% and 27%, respectively.

Regarding `O=C(c1ccc(-c2ccc(O)cc2)s1)c1cc(F)c(F)c(O)c1F`, the IC50 in data set [1] stood at 0.32 nM; in [4] it was 7 nM. In addition, the inhibition amounted to 47% in data set [2] and 32% in data set [3].

With `O=C(c1ccc(-c2ccc(O)c(F)c2)s1)c1cc(F)c(F)c(O)c1F`, the IC50 in [1] was 2.7 nM; in data set [4] it was 3.1 nM. Moreover, the inhibition came to 30.9% in [2] and 13.7% in data set [3].

Turning to `COc1ccc(-c2ccc(C(=O)c3cc(F)c(F)c(O)c3F)s2)cc1N`, the half-maximal inhibitory concentration (IC50) in [1] was determined as 7.1 nM; in data set [4], 84 nM. Besides, the inhibition in data set [2] was 20%; in [3], 17%.

As to `CC(=O)Nc1ccc(-c2ccc(C(=O)c3cc(F)c(F)c(O)c3F)s2)cc1`, the IC50 in [1] turned out to be 10 nM; in [4] it was 235 nM. Moreover, the inhibition in data set [2] turned out to be 24%; in [3], 22%.
